Data published in US4968826A, “Platinum complexes and antitumor agents containing them as an active ingredient” (Shionogi & Co., Ltd., priority 1989, dated 1990).

Columns and labels:
Colon tumor 38 = test: Antitumor activity against Colon tumor 38 transplanted in mice; type: in vivo, BDF1 mice; settings: for ED 50 (dose of 50% growth inhibition in the mean tumor size): i.v. on next day and 8th day after; for chemotherapy index (CI): from ED50 and LD50, the greater, the more effective
Description: Antitumor activity against Colon tumor 38:
A tumor segment of Colon tumor 38 was transplanted beneath the dorsal skin of BDF1 mice (6 to 10 mice in each group), and the test compounds were intravenously administered on the next day and on the 8th day after the next day, respectively. As solvent for injection, 0.9% physiological saline was used.
Test Compounds A, C, D and E were same as those used in Experiment 1.

L1210 = test: Antitumor effect (ILS) in mice inoculated i.p. with murine leukemia L1210; type: in vivo, murine leukemia cells in BDF1 mice; settings: for ILS30 (dose of achieving 30% ILS) / ILS max (dose of achieving the maximum ILS): i.p.; for Number of mice survived 30 days or longer: of 7 mice; for chemotherapy index (CI): from ILS30 and ILSmax, the greater, the more effective
Description: (§1) Antitumor activities against murine leukemia cells (L1210) and cisplatin-resistant murine leukemia cells (L1210/CDDP):
(§2) Murine leukemia L1210 (or L1210/CDDP) ascitic cells (1×10^5 cells) (5×10^5 cells for L1210/CDDP) were intraperitoneally inoculated to BDF1 mice (each group consisting 6~10 mice), and on the next day a predetermined amount of the test compound was intraperitoneally administered. 0.9% physiological saline was used as a solvent for injection.
(§3) From the average survival days (a) in each test group and those (b) of the non-treated control group, the increase of lifespan (ILS) was calculated according to the following formula. [formula]
(§4) As compared with the non-treated control group, the dose of achieving 30% ILS (ILS30) and the dose of achieving the maximum ILS (ILSmax) were obtained, from which the chemotherapy index (CI) was calculated. [formula]

L1210/CDDP = test: Antitumor effect (ILS) in mice inoculated i.p. with cisplatin-resistant murine leukemia L1210/CDDP; type: in vivo, murine leukemia cells in BDF1 mice; settings: for ILS30 (dose of achieving 30% ILS) / ILSmax (dose of achieving the maximum ILS): i.p.; for Number of mice surviving 30 days or longer: A: of 6 mice; for chemotherapy index (CI): from ILS30 and ILSmax, the greater, the more effective
Description: as §1, §2, §3, §4

[1] = test system: murine nucleated bone marrow cells; test: Hemotoxicity: nucleated bone marrow cell count (NBMC) in femora; type: in vivo, male CDF1 mice; settings: 4 days after
Description: (§5) Influence against murine nucleated bone marrow cell count, megakaryocyte count and platelet count in peripheral blood:
(§6) After a single intravenous administration of test compounds to male CDF1 mice (7 weeks old), hemotoxicity was investigated by counting the nucleated bone marrow cell in femora (NBMC), megakaryocyte (MEG) and platelet (PLT) in peripheral blood. Measuring timing was taken when the three indices reached the minimal value, namely 4 days after administration for NBMC, and 7 days after for MEG and PLT.
(§7) Changes in the counts of nucleated bone marrow cells (NBMC), megakaryocytes (MEG) and platelets (PLT) in peripheral blood induced by administration of the test compounds are shown as hemotoxicity, expressed as the ratio of the value of each index in the test group to that of the non-treated conrol group as a percentage.

megakaryocytes = test: Hemotoxicity: megakaryocyte count (MEG); type: in vivo, male CDF1 mice; settings: 7 days after
Description: as §5, §6, §7

[2] = test system: platelets in peripheral blood; test: Hemotoxicity: platelet count (PLT) in peripheral blood; type: in vivo, male CDF1 mice; settings: 7 days after
Description: as §5, §6, §7

kidneys = test: Evaluation of nephrotoxicity in mice; type: in vivo, male CDF1 mice; settings: for Creatinine / Urea nitrogen: mouse, in vivo, iv
Method: Evaluation of nephrotoxicity in mice:
After a single intravenous administration of Test Compound A to male CDF1 mice (6 weeks old) at a rate of 160 or 320 mg/kg*, the levels of creatinine and urea nitrogen in plasma were measured. The mice were presented for pathological examination of kidneys four days after administration. (*: 320 mg/kg would be a lethal dose if the observation period was further extended.)

[3] = 30.0 mg/kg (1/6 LD90) single i.v.

N.N.[Cl][Pt][Cl] [Test Compound D, Cisplatin, reference compound]
ED 50 (dose of 50% growth inhibition in the mean tumor size) (Colon tumor 38): 18.3 mg/kg | ILS30 (dose of achieving 30% ILS) (L1210): 2.7 mg/kg | ILS max (dose of achieving the maximum ILS) (L1210): 10 mg/kg | ILS30 (dose of achieving 30% ILS) (L1210/CDDP): ineffective

N.N.O=C([O-])C1(C(=O)[O-])CCC1.[Pt+2] [Test Compound E, Carboplatin]
Hemotoxicity NBMC (ratio to non-treated control) [1, 3]: 78 percentage | Hemotoxicity NBMC (ratio to non-treated control) ([1]; 60.0 mg/kg single i.v.): 75 percentage | Hemotoxicity NBMC (ratio to non-treated control) ([1]; 120.0 mg/kg single i.v.): 28 percentage | Hemotoxicity MEG (ratio to non-treated control) (megakaryocytes; [3]): 60 percentage | Hemotoxicity MEG (ratio to non-treated control) (megakaryocytes; 60.0 mg/kg single i.v.): 45 percentage | Hemotoxicity MEG (ratio to non-treated control) (megakaryocytes; 120.0 mg/kg single i.v.): 8 percentage | ED 50 (dose of 50% growth inhibition in the mean tumor size) (Colon tumor 38): Ineffective | Solubility in water: 16 mg/mL | Hemotoxicity PLT (ratio to non-treated control) [2, 3]: 89 percentage | Hemotoxicity PLT (ratio to non-treated control) ([2]; 60.0 mg/kg single i.v.): 65 percentage | Hemotoxicity PLT (ratio to non-treated control) ([2]; 120.0 mg/kg single i.v.): 35 percentage | ILS30 (dose of achieving 30% ILS) (L1210/CDDP): ineffective

(1R,2R-Diaminocyclohexane)[1-hydroxy-1-cyclopentanecarboxylato(2-)-O^1,O^2 ]platinum (II) [Test Compound A]
Hemotoxicity NBMC (ratio to non-treated control) ([1]; 31.0 mg/kg single i.v.): 108 percentage | Hemotoxicity NBMC (ratio to non-treated control) ([1]; 62.0 mg/kg (1/5 LD90) single i.v.): 87 percentage | Creatinine (kidneys; 160 mg/kg): 0.26 | Urea nitrogen (kidneys; 160 mg/kg): 22.6 mg/dL | Creatinine (kidneys; 320 mg/kg): 0.27 | Urea nitrogen (kidneys; 320 mg/kg): 23.3 mg/dL | lethal dose (kidneys; single i.v., male CDF1 mice, if the observation period was further extended): 320 mg/kg | chemotherapy index (CI) (Colon tumor 38): 2.7 | ED 50 (dose of 50% growth inhibition in the mean tumor size) (Colon tumor 38): 164.9 mg/kg | Solubility in water: > 500 mg/mL | increase of lifespan (ILS) (L1210; 5 mg/kg i.p.): 10% | increase of lifespan (ILS) (L1210; 10 mg/kg i.p.): 16% | increase of lifespan (ILS) (L1210; 20 mg/kg i.p.): 19% | increase of lifespan (ILS) (L1210; 40 mg/kg i.p.): 37% | Number of mice survived 30 days or longer (L1210; 40 mg/kg i.p.): 1 | increase of lifespan (ILS) (L1210; 80 mg/kg i.p.): > 81% | Number of mice survived 30 days or longer (L1210; 80 mg/kg i.p.): 3 | increase of lifespan (ILS) (L1210; 160 mg/kg i.p.): > 168% | Number of mice survived 30 days or longer (L1210; 160 mg/kg i.p.): 1 | increase of lifespan (ILS) (L1210; 320 mg/kg i.p.): 14% | chemotherapy index (CI) (L1210): 5.2 | ILS30 (dose of achieving 30% ILS) (L1210): 31 mg/kg | ILS max (dose of achieving the maximum ILS) (L1210): 160 mg/kg | increase of lifespan (ILS) (L1210/CDDP; 5 mg/kg i.p.): 1% | increase of lifespan (ILS) (L1210/CDDP; 10 mg/kg i.p.): 5% | increase of lifespan (ILS) (L1210/CDDP; 20 mg/kg i.p.): > 50% | Number of mice surviving 30 days or longer (L1210/CDDP; 20 mg/kg i.p.): 2 | increase of lifespan (ILS) (L1210/CDDP; 40 mg/kg i.p.): > 56% | Number of mice surviving 30 days or longer (L1210/CDDP; 40 mg/kg i.p., B: of 7 mice): 2 | increase of lifespan (ILS) (L1210/CDDP; 80 mg/kg i.p.): > 110% | Number of mice surviving 30 days or longer (L1210/CDDP; 80 mg/kg i.p., B: of 7 mice): 4 | increase of lifespan (ILS) (L1210/CDDP; 160 mg/kg i.p.): 1% | chemotherapy index (CI) (L1210/CDDP): 5.5 | ILS30 (dose of achieving 30% ILS) (L1210/CDDP): 14.5 mg/kg | ILSmax (dose of achieving the maximum ILS) (L1210/CDDP): 80 mg/kg

(1R,2R-Diaminocyclohexane)[1-hydroxy-1-cyclopropanecarboxylato(2-)-O^1,O^2 ]platinum (II) [Test Compound B]
Solubility in water: 30 mg/mL | increase of lifespan (ILS) (L1210; 10 mg/kg i.p.): 10% | increase of lifespan (ILS) (L1210; 20 mg/kg i.p.): 21% | increase of lifespan (ILS) (L1210; 40 mg/kg i.p.): 22% | increase of lifespan (ILS) (L1210; 80 mg/kg i.p.): 66% | increase of lifespan (ILS) (L1210; 160 mg/kg i.p.): > 83% | Number of mice survived 30 days or longer (L1210; 160 mg/kg i.p.): 2 | chemotherapy index (CI) (L1210): 3.6 | ILS30 (dose of achieving 30% ILS) (L1210): 45 mg/kg | ILS max (dose of achieving the maximum ILS) (L1210): 160 mg/kg | increase of lifespan (ILS) (L1210/CDDP; 5 mg/kg i.p.): 6% | increase of lifespan (ILS) (L1210/CDDP; 10 mg/kg i.p.): 14% | increase of lifespan (ILS) (L1210/CDDP; 20 mg/kg i.p.): 4% | increase of lifespan (ILS) (L1210/CDDP; 40 mg/kg i.p.): > 93% | Number of mice surviving 30 days or longer (L1210/CDDP; 40 mg/kg i.p., B: of 7 mice): 3 | increase of lifespan (ILS) (L1210/CDDP; 80 mg/kg i.p.): > 179% | Number of mice surviving 30 days or longer (L1210/CDDP; 80 mg/kg i.p., B: of 7 mice): 6 | increase of lifespan (ILS) (L1210/CDDP; 160 mg/kg i.p.): -16% | chemotherapy index (CI) (L1210/CDDP): 3.3 | ILS30 (dose of achieving 30% ILS) (L1210/CDDP): 24 mg/kg | ILSmax (dose of achieving the maximum ILS) (L1210/CDDP): 80 mg/kg

(1R,2R-Diaminocyclohexane)[2-hydroxy-2-methylbutyrato(2-)-O^1, O^2 -]platinum (II) [Test Compound C]
chemotherapy index (CI) (Colon tumor 38): 4.3 | ED 50 (dose of 50% growth inhibition in the mean tumor size) (Colon tumor 38): 106.2 mg/kg
